Measurements taken from article PMC6271338, “Synthesis and Cytotoxic Evaluation of Alkoxylated Chalcones” (Molecules, 2014).

How the values were obtained:
HepG2 cells = assay: In vitro anti-proliferative SRB assay, HepG2; type: cell-based, human
Procedure: (§1) HepG2 and MCF7 cells were grown in the Eagle’s minimum essential medium with Earle’s balanced salts (MEM-EBSS) medium, HeLa, A549 and L02 cells were grown in Dulbecco’s Modified Eagle Media (DMEM), SW1990 cells were grown in RPMI-1640 medium, and HMLE cell were grown in DMEM/F-12 medium. […]
(§2) Cells were seeded into 96-well plates (4000 cells/well) and incubated at 37 °C in a humidified 5% CO2 atmosphere. After 24 h, the cells were treated with different concentrations of the compounds for 48 h in triplicate to generate dose-response curves. Cell viability was evaluated using the sulforhodamine B (SRB) assay as previous described.

HeLa cells = assay: In vitro anti-proliferative SRB assay, HeLa; type: cell-based, human
Procedure: as §1, §2

SW1990 cells = assay: In vitro anti-proliferative SRB assay, SW1990; type: cell-based, human
Procedure: as §1, §2

MCF-7 cells = assay: In vitro anti-proliferative SRB assay, MCF-7; type: cell-based, human
Procedure: as §1, §2

A549 cells = assay: In vitro anti-proliferative SRB assay, A549; type: cell-based, human
Procedure: as §1, §2

[1] = Cytotoxicity (SRB) against non-tumoral HMLE cells; type: cell-based, human; details: human, HMLE cells (non-tumoral human mammary epithelial cells); increasing concentrations up to 100 μM; mean ± SD of at least three independent experiments; read-out: Normal Human Cell Lines, CC50, HMLE
Procedure: All compounds were also evaluated for their cytotoxic activity against two non-tumoral human cell lines named human mammary epithelial cell (HMLE) and L02 (a human liver cell line) in Table 2 and SI values between the CC50 in non-tumoral cell lines and IC50 in tumoral cells calculated.
as §1
as §2, with “described. […] Etoposide was used as the positive control.” for “described.”

[2] = Homo sapiens, HepG2 cells, 10 μM, SRB assay, mean ± SD of three independent experiments

Compound | melting point | inhibition at 10 µM (HepG2 cells; [2]) | other results
(E)-1-(4-Methoxyphenyl)-3-(4-carbonylphenyl)prop-2-en-1-one [a7] |  |  | Inhibition (%) (HepG2 cells; HepG2 cells, 10 μM, SRB assay, mean ± SD of three independent experiments): 32.7 ± 3.0%
COc1ccc(C(=O)/C=C/c2ccc(OC)c(OC)c2)cc1 [a15, (E)-1-(4-Methoxyphenyl)-3-(3,4-dimethoxyphenyl)prop-2-en-1-one] |  | 65 ± 17.6% | 
COc1ccc(/C=C/C(=O)c2ccc(OC)cc2)cc1 [a10, (E)-1,3-bis(4-Methoxyphenyl)prop-2-en-1-one] |  | 27.7 ± 17.7% | 
COc1ccc(C(=O)/C=C/c2ccc([N+](=O)[O-])cc2)cc1 [a6, (E)-1-(4-Methoxyphenyl)-3-(4-nitrophenyl)prop-2-en-1-one] |  | 9.8 ± 5% | 
COc1cccc(OC)c1/C=C/C(=O)c1ccccc1 [b1, (E)-1-Phenyl-3-(2,6-dimethoxyphenyl)prop-2-en-1-one] | 52.6 to 54.7 °C |  | IC50 (HeLa cells; Homo sapiens, HeLa, increasing concentrations up to 30 μM, mean ± SD of at least three independent experiments): > 30 µM; SI (CC50 HMLE/IC50 Hela) (HeLa cells; selectivity index, HMLE vs HeLa): <0.3; SI (CC50 L02/IC50 Hela) (HeLa cells; selectivity index, L02 vs HeLa): <1.1; IC50 (SW1990 cells; Homo sapiens, SW1990, increasing concentrations up to 30 μM, mean ± SD of at least three independent experiments): > 30 µM; SI (CC50 HMLE/IC50 SW1990) (SW1990 cells; selectivity index, HMLE vs SW1990): <0.3; SI (CC50 L02/IC50 SW1990) (SW1990 cells; selectivity index, L02 vs SW1990): <1.1; IC50 (MCF-7 cells; Homo sapiens, MCF7, increasing concentrations up to 30 μM, mean ± SD of at least three independent experiments): 28.18 ± 0.04 µM; SI (CC50 HMLE/IC50 MCF7) (MCF-7 cells; selectivity index, HMLE vs MCF7): 0.3; SI (CC50 L02/IC50 MCF7) (MCF-7 cells; selectivity index, L02 vs MCF7): 1.2; IC50 (A549 cells; Homo sapiens, A549, increasing concentrations up to 30 μM, mean ± SD of at least three independent experiments): > 30 µM; SI (CC50 HMLE/IC50 A549) (A549 cells; selectivity index, HMLE vs A549): <0.3; SI (CC50 L02/IC50 A549) (A549 cells; selectivity index, L02 vs A549): <1.1; CC50 at 48 h [1]: 9.47 ± 0.39 µM; IC50 (HepG2 cells; Homo sapiens, HepG2, increasing concentrations up to 30 μM, mean ± SD of at least three independent experiments): 21 ± 1.75 µM; SI (CC50 HMLE/IC50 HepG2) (HepG2 cells; selectivity index, HMLE vs HepG2): 0.5; SI (CC50 L02/IC50 HepG2) (HepG2 cells; selectivity index, L02 vs HepG2): 1.6
COc1ccc(C(=O)/C=C/c2cccc(OC)c2OC)cc1 [a12, (E)-1-(4-Methoxyphenyl)-3-(2,3-dimethoxyphenyl)prop-2-en-1-one] |  | 66.3 ± 4.2% | 

Further lines, with some results ahead:

melting point | Compound | inhibition at 10 µM (HepG2 cells; [2]) | other results
98.7 to 101 °C | COc1ccc(C(=O)/C=C/c2ccc(F)cc2Br)cc1 [a4, (E)-1-(4-Methoxyphenyl)-3-(2-bromo-4-fluorophenyl)prop-2-en-1-one] | 41.2 ± 4.6% | 
43.2 to 45.5 °C | COc1ccc(C(=O)/C=C/c2ccccc2OC)cc1 [a8, (E)-1-(4-Methoxyphenyl)-3-(2-methoxyphenyl)prop-2-en-1-one] | 61.4 ± 3.4% | 
95.7 to 97 °C | COc1ccc(C(=O)/C=C/c2cccc(OC)c2)cc1 [a9, (E)-1-(4-Methoxyphenyl)-3-(3-methoxyphenyl)prop-2-en-1-one] | 59 ± 2.9% | 
54.7 to 56.3 °C | COc1ccc(C(=O)/C=C/c2cc(OC)ccc2OC)cc1 [a13, (E)-1-(4-methoxyphenyl)-3-(2,5-dimethoxyphenyl)prop-2-en-1-one] | 77 ± 2.2% | 
122.2 to 123.6 °C | COc1ccc(C(=O)/C=C/c2ccc(Br)cc2F)cc1 [a3, (E)-1-(4-Methoxyphenyl)-3-(4-bromo-2-fluorophenyl)prop-2-en-1-one] | 41.8 ± 5.9% | 
115 to 118.2 °C | COc1ccc(C(=O)/C=C/c2ccc(OC)c(OCc3ccccc3)c2)cc1 [a17, (E)-1-(4-Methoxyphenyl)-3-(3-(benzyloxy)-4-methoxyphenyl)prop-2-en-1-one] | 44.1 ± 6.2% | 
